Results reported in ChEMBL document CHEMBL1154910, “Nitric oxide donors or nitrite counteract copper-[dithiocarbamate](2)-mediated tumor cell death and inducible nitric oxide synthase down-regulation: possible role of a nitrosyl-copper [dithiocarbamate](2) complex” (J Med Chem, 2010).
The source made the active and inactive calls. The rule behind the calls is not given here.

Legend:
Format in all cases: functional, cell-based
C8161 [1] = assay: Inhibition of [DEDTC]2-Cu-induced cytotoxicity against human C8161 cells at 50 uM
C8161 [2] = assay: Inhibition of [DEDTC]2-Cu-induced iNOS-down regulation human C8161 cells
SK-BR-3 [3] = assay: Inhibition of [DEDTC]2-Cu-induced apoptosis in human SK-BR-3 cells assessed as PARP-cleavage at 50 uM
SK-BR-3 [4] = assay: Inhibition of [DEDTC]2-Cu-induced cytotoxicity against human SK-BR-3 cells at 50 uM

**Q.** Which Activity (C8161 [1]) does the source give for `NCCN(CCN)N(O)N=O` here?
**A.** Its Activity is “Active”.

**Q.** What does the source list for `CC(=O)N[C@@H](C(=O)O)C(C)(C)SN=O`?
**A.** Activity (C8161 [2]): Active; Activity (SK-BR-3 [3]): Active; Activity (C8161 [1]): Active; Activity (SK-BR-3 [4]): Active
